Measurements from US6534508B2, “Methods and compositions for treating infection using optically pure (S)-lomefloxacin” (priority 1991, dated 2003).
In brackets after ≈: the same amount, converted by molar mass. Where two headings read alike, the source gives them in different places.

Columns and labels:
M. tuberculosis [1] = assay: Broth microdilution MIC, M. tuberculosis isolates; type: cell-based; settings: 12 strains, 14 days incubation, 7H9 broth
M. avium = assay: Broth microdilution MIC, M. avium isolates; type: cell-based; settings: 11 strains, 7 days incubation, 7H9 broth
M. kansasii = assay: Broth microdilution MIC, M. kansasii isolates; type: cell-based; settings: 10 strains, 7 days incubation, 7H9 broth
M. chelonei C315 = assay: Broth microdilution MIC, M. chelonei C315; type: cell-based; settings: for MIC50: as worded in conclusions, single strain
M. marinum ATCC 927 = assay: Broth microdilution MIC, M. marinum ATCC 927; type: cell-based
M. tuberculosis [2] = settings: 79 strains susceptible to conventional drug therapy; cited from earlier work
[3] = human, in vivo, cited from earlier work
β-adrenergic = settings: L-form vs D-enantiomer; cited from earlier work
[4] = 1 strain, 4 days incubation, 7H9 broth
[5] = 1 strain, 7 days incubation at 30° C., 7H9 broth
[6] = as worded in conclusions, single strain

Compound | Susceptibility, Range (M. tuberculosis [1]) | Susceptibility, Range (M. avium) | Susceptibility, MIC90 (M. kansasii) | Susceptibility, Range (M. kansasii) | Susceptibility, MIC50 (M. tuberculosis [1]) | Susceptibility, MIC50 (M. avium) | Susceptibility, MIC90 (M. avium) | Susceptibility, MIC50 (M. kansasii) | Susceptibility, MIC (M. chelonei C315; [4]) | MIC50 (M. chelonei C315) | Susceptibility, MIC (M. marinum ATCC 927; [5]) | MIC (M. marinum ATCC 927; [6]) | other results
CCn1cc(C(=O)O)c(=O)c2cc(F)c(N3CCNC(C)C3)c(F)c21 (racemic) [LM, 1-ethyl-6,8-difluoro-1,4-dihydro-7-(3-methyl-lpiperazinyl)-4-oxo-3-quinolinecarboxylic acid] | 0.5 to 2 µg/mL | 4 to 16 µg/mL | 2.0 µg/mL | 1 to 2 µg/mL | – | – | – | – | – | – | – | – | MIC50 (M. tuberculosis [1]; Mycobacterium tuberculosis, 336 h, read-out: Susceptibility, MIC50): 1 µg/mL (≈ 2.85 µM); MIC90 (M. tuberculosis [1]; Mycobacterium tuberculosis, 336 h, read-out: Susceptibility, MIC90): 2 µg/mL (≈ 5.69 µM); MIC50 (M. avium; Mycobacterium avium, 168 h, read-out: Susceptibility, MIC50): 8 µg/mL (≈ 22.8 µM); MIC90 (M. avium; Mycobacterium avium, 168 h, read-out: Susceptibility, MIC90): 16 µg/mL (≈ 45.5 µM); MIC50 (M. kansasii; Mycobacterium kansasii, 168 h, read-out: Susceptibility, MIC50): 1 µg/mL (≈ 2.85 µM); MIC90 (M. kansasii; Mycobacterium kansasii, 168 h, read-out: Susceptibility, MIC90): 2 µg/mL (≈ 5.69 µM); MIC (M. chelonei C315; Mycobacteroides abscessus, C315, 96 h, 1 strain, 4 days incubation, 7H9 broth, read-out: Susceptibility, MIC): 4 µg/mL (≈ 11.4 µM); MIC50 (M. chelonei C315; Mycobacteroides abscessus, C315, read-out: MIC50): 4 µg/mL (≈ 11.4 µM); MIC (M. marinum ATCC 927; Mycobacterium marinum, ATCC927, 168 h, 1 strain, 7 days incubation at 30° C., 7H9 broth, read-out: Susceptibility, MIC): 4 µg/mL (≈ 11.4 µM); MIC50 (M. marinum ATCC 927; Mycobacterium marinum, ATCC927, as worded in conclusions, single strain): 4 µg/mL (≈ 11.4 µM); MIC50 (M. tuberculosis [2]): 0.96 µg/mL (≈ 2.73 µM); MIC90 (M. tuberculosis [2]): 1.02 µg/mL (≈ 2.9 µM); average elimination half-life ([3]; po): approximately 8 hours; prolongation of the half-life [3]: up to 24 hours
CC(C)NC[C@H](O)COc1cccc2ccccc12 [L-form of propranolol, propranolol] | – | – | – | – | – | – | – | – | – | – | – | – | potency relative to the D-enantiomer (β-adrenergic): 100 times
CCn1cc(C(=O)O)c(=O)c2cc(F)c(N3CCN[C@H](C)C3)c(F)c21 [R-LM, (R)-lomefloxacin] | 1 to 4 µg/mL | 4 to 32 µg/mL | 4 µg/mL | 2 to 4 µg/mL | 2 µg/mL | 16 µg/mL | 32 µg/mL | 2 µg/mL | 4 µg/mL | 4.0 µg/mL (≈ 11.4 µM) | 4 µg/mL | 4.0 µg/mL (≈ 11.4 µM) | Susceptibility, MIC90 (M. tuberculosis [1]): 4 µg/mL; Susceptibility, MIC90 (M. kansasii; listed as (R)-LM): 4.0 µg/mL
CCn1cc(C(=O)O)c(=O)c2cc(F)c(N3CCN[C@@H](C)C3)c(F)c21 [S-LM, (S)-lomefloxacin] | 0.25 to 1 µg/mL | 2 to 16 µg/mL | 2 µg/mL | 1 to 2 µg/mL | 0.5 µg/mL | 8 µg/mL | 16 µg/mL | 1 µg/mL | 2 µg/mL | 2.0 µg/mL (≈ 5.69 µM) | 2 µg/mL | 2.0 µg/mL (≈ 5.69 µM) | Susceptibility, MIC90 (M. kansasii; listed as (S)-LM): 2.0 µg/mL
